# Experimental data taken from US20260309717A1, “PROXIMITY INDUCING SYSTEM AND USES THEREOF” (SORBONNE UNIVERSITE, priority 2022, published 2026).
# How the values were obtained:
# [1] = target: T1, ^FIREmate and ^FIREtag (fused to FRB and FKBP) (Halorhodospira halophila, UniProt P16113, A30V/C69G/D97P/F96I, form not given/G21E/G25R/K17N/M100R/M109L/Q41L/Q99S/S72T/T101G/V83A/Y94W/Y98T); test: Flow cytometry of fluorescent ternary assembly formation in HEK293T cells co-expressing FKBP-^FIREtag and FRB-^FIREmate; type: cell-based
# T1 sequence (P16113 1-114 A30V/C69G/D97P/F96I/G21E/G25R/K17N/M100R/M109L/Q41L/Q99S/S72T/T101G/V83A/Y94W/Y98T): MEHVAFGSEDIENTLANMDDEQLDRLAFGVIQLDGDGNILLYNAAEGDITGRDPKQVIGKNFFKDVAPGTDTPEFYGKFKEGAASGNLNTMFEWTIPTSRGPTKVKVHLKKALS
# Procedure: FIGS. 2A and 2B are graphs illustrating the fluorogen-dependent interaction between the two polypeptides ^FIREmate and ^FIREtag. The graphs show the normalized average fluorescence detected from about 50,000 HEK293T cells co-expressing the FK506-binding protein (FKBP) fused to ^FIREtag and the FKBP-rapamycin-binding domain of mammalian target of rapamycin (FRB) fused to ^FIREmate treated without (triangles) or with (squares) 500 nM of rapamycin, and with 1, 5, 10, 25 or 50 μM of HBR-2,5DM (2A) or HMBR (2B). Data represent the mean values±SD of three independent experiments.
# The formation of a fluorescent ternary assembly was assessed by flow cytometry in HEK293 cells expressing ^FIREmate and ^FIREtag fused to the C-termini of FKBP (FK506-binding protein) and FRB (FKBP-rapamycin-binding domain of mammalian target of rapamycin), […]. FKBP and FRB are able to dimerize upon addition of rapamycin. Treatment of the HEK293 cells with rapamycin is thus expected to induce the dimerization of FKBP and FRB, and subsequently to induce proximity between ^FIREtag and ^FIREmate.
# [2] = target: T2, NLS-mCherry-^FIREmate / NES-ECFP-^FIREtag (Halorhodospira halophila, UniProt P16113, A30V/C69G/D97P/F96I, form not given/G21E/G25R/K17N/M100R/M109L/Q41L/Q99S/S72T/T101G/V83A/Y94W/Y98T); test: Nuclear export of proteins (nucleocytoplasmic trafficking), confocal microscopy, HeLa cells; type: cell-based; details: 10 μM, 4 min
# T2 construct: NLS-mCherry-FIREmate and NES-ECFP-FIREtag in HeLa cells
# T2 sequence (P16113 1-114 A30V/C69G/D97P/F96I/G21E/G25R/K17N/M100R/M109L/Q41L/Q99S/S72T/T101G/V83A/Y94W/Y98T): T1 sequence (P16113 1-114 A30V/C69G/D97P/F96I/G21E/G25R/K17N/M100R/M109L/Q41L/Q99S/S72T/T101G/V83A/Y94W/Y98T)
# Procedure: FIGS. 13A-D illustrate the nuclear export of proteins mediated by the proximity inducing system described herein. FIG. 13A is a representation of the experimental design wherein HeLa cell co-expressing NLS-mCherry-FIR_^FIREmate and NES-ECFP-^FIREtag were treated with 10 μM of match (i.e., HBR-2,5DM) and imaged by time-lapse confocal microscopy. FIG. 13B is a graph showing the temporal evolution of the ratio nucleus-to-cytoplasm mCherry fluorescence intensities of n=5 cells from 2 independent experiments. FIG. 13C is a graph showing the temporal evolution of the FIRE signal detected upon addition of HBR-2,5DM at 0 min of n=5 cells from 2 independent experiments. […]
# The confocal micrographs were acquired on a Zeiss LSM 980 Laser Scanning Microscope equipped with a plan apochromat 63x/1.4 NA oil immersion objective. […] The images were analyzed using Icy (2.4.0.0) and Fiji (Image J). In short, to track fluorescence signal in a specific organelle, a ROI (region of interest) was determined by masking the signal in the ECFP (Enhanced Cyan Fluorescent Protein) channel with the plug-in HK-means with the following parameters: intensity class equals 100, minimum object size (pixels or px) equals 500, maximum object size (px) equals 1500-3000. […]
smiles,measurement,setting,value
"Cc1cc(/C=C2\SC(=S)NC2=O)c(C)cc1O [HBR-2,5DM, (Z)-5-(4-hydroxy-2,5-dimethylbenzylidene)-2-thioxo-1,3-thiazolidin-4-one]",dimerization of FKBP and FRB (induced proximity),[1]; absence of rapamycin,able to induce the dimerization of FKBP and FRB
same,formation of a ternary fluorescent assembly,"[1]; fluorogen 1, 5, 10, 25 or 50 μM, HEK293 cells",induced the formation of a ternary fluorescent assembly at all tested fluorogen concentrations
same,dependence of ternary fluorescent assembly formation on rapamycin (initial proximity),"[1]; with or without 500 nM rapamycin, fluorogen 1-50 μM",regardless of the presence or absence of rapamycin
same,FIRE signal in the cytoplasm,[2],strong cytoplasmic green fluorescence
same,cytoplasmic localization of the formed protein complex (nuclear export of NLS-mCherry-^FIREmate),[2],efficient cytoplasmic localization of the formed protein complex
